System: immortalized keratinocyte cell line HaCaT
Assay: Resazurin assay, HaCaT cell viability / proliferation
Type: cell-based, human
Settings: for suboptimal dose of reduced viability: single agent dose response, HaCaT, 24 hours (FIG. 1)
Method: The spontaneously immortalized, nontumorigenic skin keratinocyte cell line HaCaT was maintained in DMEM supplemented with 5% (v/v) FBS, 0.3 mg/ml glutamine and 0.1 mg/ml gentamicin at 37° C. with 5% CO2 in a humidified atmosphere. Subculture using trypsin-EDTA was performed every 3-4 days with split ratio of 1:3-1:4 to ensure actively proliferating cells.
Cells were seeded in 96 well plates in fully supplemented medium at a density of 3000 cells per well. […] Next day, the cells were treated with cPLA2α inhibitor Compound B, Compound A, vitamin D analogue Calcipotriol and corticosteroid hormone receptor agonist Betamethasone dipropionate for 24 hours. Resazurin was added next day according to the manufacturer's instruction (RnD Systems, UK) and left to incubate for […] in incubator at 37° C. with 5% CO2 in a humidified atmosphere before fluorescence was read at 544 nm excitation and 590 nm emission wavelength. The cells were observed under the microscope to evaluate possible morphology changes and signs of stress before addition of resazurin. The experiments were performed in series of 8 wells per treatment and repeated 3 times.

| Compound | suboptimal dose of reduced viability | concentration up to which Hacat keratinocytes show resistance (single agent dose response (FIG. 1c), little effect seen attributed to solvent DMSO) |
| --- | --- | --- |
| CCCCCCCOc1ccc(OCC(=O)c2nc(C(=O)OC)cs2)cc1 [Compound A1] | 10 µM |  |
| C[C@H]1C[C@H]2[C@@H]3CCC4=CC(=O)C=C[C@]4(C)[C@@]3(F)[C@@H](O)C[C@]2(C)[C@@]1(O)C(=O)CO [Betamethasone] | 50 µM | up to 200 μM |

— patent US20190255023A1, “COMBINATION THERAPY COMPRISING A THIAZOLE AND A CORTICOSTEROID TO TREAT SKIN CONDITIONS” (priority 2016, published 2019)
